Laboratory results from article PMC10892497, “Discovery of Pyrano[2,3-c]pyrazole Derivatives as Novel Potential Human Coronavirus Inhibitors: Design, Synthesis, In Silico, In Vitro, and ADME Studies” (Pharmaceuticals, 2024).
Read-outs that look alike come from different tables or passages of the source.

What was measured:
[1] = target: T1, SARS-CoV2 protease enzyme (3CL protease, M^pro) (Severe acute respiratory syndrome coronavirus 2, UniProt P0DTD1); experiment: Protease (SARS-CoV2) inhibition test, 3CL Protease Test Kit; format: biochemical
T1 construct: provided with 30 µL of diluted 3CL Protease enzyme solution (M^pro); purchased BPS Bioscience, San Diego, CA, USA #79955-1

[2] = MTT assay for cellular toxicity; details: African green monkey
HCoV-229E [3] = experiment: Cytopathic inhibition assay (crystal violet); details: for antiviral activity against HCoV-229E (in words): Vero-E6; for IC50: cytopathic inhibition assay
HCoV-229E [4] = experiment: Mode of action using plaque assay (virucidal, adsorption, replication); format: cell-based, human coronavirus 229E; details: replication mechanism
[5] = Human coronavirus 229E, Vero C1008, HCoV-229E in Vero-E6 cells
[6] = Vero-E6 cells infected with HCoV-229E

SMILES | IC50 [1] [µM] | CC50 at 48 h [2] [µM] | selectivity ratio (HCoV-229E [3]) | antiviral activity against HCoV-229E (in words) (HCoV-229E [3]) | IC50 (HCoV-229E [3]; [5]) [µM] | IC50 (HCoV-229E [3]; HCoV-229E in Vero-E6 cells) [µM] | melting point [°C] | reduction percentage, replication phase (HCoV-229E [4]) [%] | selectivity ratio (HCoV-229E [3]; [6])
CCC[C@@]1(CCc2ccccc2)CC(O)=C([C@H](CC)c2cccc(NS(=O)(=O)c3ccc(C(F)(F)F)cn3)c2)C(=O)O1 [tipranavir, reference compound] | 22.1 |  |  |  |  |  |  |  | 
Cc1n[nH]c2c1C(c1cccs1)c1c(ncn3ncnc13)O2 (stereo not drawn) [Compound 12] |  | 66.6 | 3.5 | minimal antiviral activity | 18.6 |  |  |  | 
Cc1n[nH]c2c1C(c1cccs1)C(C#N)=C(/N=C/c1nncn1C)O2 (stereo not drawn) [Compound 4] |  | 67.5 | 0.9 | did not | 78.1 | 70.1 |  |  | 
Cc1n[nH]c2c1C(c1cccs1)C(C#N)=C(/N=C/[C@@H](O)[C@H](O)[C@H](O)CO)O2 (stereo partly drawn) [Compound 15] |  | 146 | 1.18 | minimal antiviral activity | 123 | 123 | > 300 |  | 
Cc1n[nH]c2c1C(c1cccs1)C(C#N)=C(N1C(=O)C(Cl)C1c1nncn1C)O2 (stereo not drawn) [Compound 6] | 105 | 585 |  | moderate efficacies | 65.6 | 89.4 |  | 53.6 | 7.6
Cc1n[nH]c2c1C(c1cccs1)C(C#N)=C(N1C(=O)CSC1c1nncn1C)O2 (stereo not drawn) [Compound 5] |  | 95.4 | 1.86 | minimal antiviral activity | 51.2 |  |  |  | 
Cc1n[nH]c2c1C(c1cccs1)C(C#N)=C(/N=C/[C@H](O)[C@@H](O)[C@H](O)CO)O2 (stereo partly drawn) [Compound 14] | 180 | 507 |  | moderate efficacies | 78.7 |  |  | 55 | 6.5
CCO/C=N/C1=C(C#N)C(c2cccs2)c2c(C)n[nH]c2O1 (stereo not drawn) [Compound 9] |  | 365 | 2.3 | minimal antiviral activity | 134 | 134 |  |  | 
Cc1n[nH]c2c1C(c1cccs1)c1c(N)ncnc1O2 (stereo not drawn) [Compound 2] |  | 749 | 2.4 | minimal antiviral activity | 309 |  |  |  | 
COP(=O)(OC)C1(c2csnn2)NC2=C(C1=O)C(c1cccs1)c1c(C)n[nH]c1O2 (stereo not drawn) [Compound 7, dimethyl(3-methyl-5-oxo-6-(1,2,3-thiadiazol-4-yl)-4-(thiophen-2-yl)-4,5,6,7-tetrahydro-1H-pyrrolo[3′,2′:5,6]pyrano[2,3-c]pyrazol-6-yl)phosphonate] | 772 | 190 | 4.3 | moderate efficacies | 35.8 | 25.8 |  | 60.7 | 
Cc1n[nH]c2c1C(c1cccs1)C(C#N)=C(/N=C/[C@H](O)[C@@H](O)[C@@H](O)[C@H](O)CO)O2 (stereo partly drawn) [Compound 18] | 66.1 | 567 |  |  | 44.9 |  | > 300 | 82.2 | 12.6
Cc1n[nH]c2c1C(c1cccs1)c1c(ncn(N)c1=N)O2 (stereo not drawn) [Compound 10] |  | 25.4 | 1.3 | minimal antiviral activity |  |  |  |  | 
Cc1n[nH]c2c1C(c1cccs1)c1c(ncn3nc(-c4nc[nH]n4)nc13)O2 (stereo not drawn) [Compound 13] |  | 49.8 | 0.46 | did not | 88.8 | 88.8 |  |  | 
Cc1n[nH]c2c1C(c1cccs1)C(C#N)=C(/N=C/[C@@H](O)[C@@H](O)[C@H](O)[C@H](O)CO)O2 (stereo partly drawn) [Compound 17] |  | 183 | 1.7 | minimal antiviral activity | 95.4 |  | > 300 |  | 
Cc1n[nH]c2c1C(c1cccs1)C1=C(NC(c3csnn3)c3c(C(F)(F)F)nn(C)c3OC1=N)O2 (stereo not drawn) [Compound 8] |  | 45.3 | 0.6 | did not | 86.2 | 69.1 |  |  | 
Cc1n[nH]c2c1C(c1cccs1)c1c(ncn3[nH]c(=S)nc13)O2 (stereo not drawn) [Compound 11] |  | 19.7 | 1.7 | minimal antiviral activity | 16 | 10.9 |  |  | 
